Experimental data published in US20230381210A1, “COMPOSITION FOR PREVENTION, AMELIORATION, OR TREATMENT OF HYPERSENSITIVITY IMMUNE DISEASE CONTAINING GALACTOSE” (Quorum Bio Co., Ltd., priority 2020, published 2023).

What was measured:
Type in all cases: in vivo, BALB/c mice
[1] = test system: DNCB-induced atopic dermatitis mouse model; experiment: Spleen and lymph node weight in DNCB-induced atopic dermatitis mouse model; conditions: oral 100 or 200 mg/kg daily (G5, G6) vs negative control (G3)
Protocol: An animal experiment in the following example was performed in accordance with the regulations set forth by Chonnam National University IACUC in an environment maintained at 50±5% humidity and 24˜26° C. temperature. 7-week-old male BALB/c mice (Damool Science Co., Ltd.) bred as a test animal were used, and after being acclimatized in a laboratory environment for one week while supplying enough feed and water, they were used in the experiment. Non-allergenic, dust-free, non-toxic, absorbent and pathogen-free bedding was used, and the cage was changed once a week to maintain a clean environment, and water was freely supplied with a water bottle. Galactose was pre-administered for 2 weeks from the period when the prepared mice were 8-week-old. Pre-administration was performed by oral administration once a day for 2 weeks, and the dose of galactose was 100 mg/kg or 200 mg/kg, respectively. As a control group, mice administered (orally) with PBS for the same period were prepared. […] On the day 16 after the first DNCB application (just before necropsy), ear thickness and clinical symptoms of the mice were measured. […] In the present example, by measuring the weight of the spleen and armpit lymph nodes right before autopsy of the mice prepared in Reference example 1, a protective effect of atopic dermatitis was indirectly evaluated.

[2] = test system: DNCB-induced atopic dermatitis mouse model; experiment: Total IgE in serum by ELISA in DNCB-induced atopic dermatitis mouse model; conditions: oral 200 mg/kg daily (G6) vs negative control (G3); day 16; FIG. 7
Protocol: An animal experiment in the following example was performed in accordance with the regulations set forth by Chonnam National University IACUC in an environment maintained at 50±5% humidity and 24˜26° C. temperature. 7-week-old male BALB/c mice (Damool Science Co., Ltd.) bred as a test animal were used, and after being acclimatized in a laboratory environment for one week while supplying enough feed and water, they were used in the experiment. Non-allergenic, dust-free, non-toxic, absorbent and pathogen-free bedding was used, and the cage was changed once a week to maintain a clean environment, and water was freely supplied with a water bottle. […] On the day 16 after the first DNCB application (just before necropsy), ear thickness and clinical symptoms of the mice were measured. At autopsy (16 days after first DNCB application), whole blood was collected, and then serum was separated and the IgE level in serum was measured by ELISA. As total IgE in serum was increased, when DNCB was treated to skin in the DNCB-induced atopic dermatitis mouse model, in the present example, by collecting blood right before autopsy of the mice prepared in Reference example 1 and then isolating serum and evaluating the total amount of IgE (ug/ml) in serum through ELISA method, a protective effect of atopic dermatitis was indirectly evaluated.

[3] = test system: DNCB-induced atopic dermatitis mouse model; experiment: Clinical scoring (rubefaction, keratin formation, crust formation) in DNCB-induced atopic dermatitis mouse model; conditions: oral 100 or 200 mg/kg daily (G5, G6) vs negative control (G3); FIG. 4
Protocol: An animal experiment in the following example was performed in accordance with the regulations set forth by Chonnam National University IACUC in an environment maintained at 50±5% humidity and 24˜26° C. temperature. 7-week-old male BALB/c mice (Damool Science Co., Ltd.) bred as a test animal were used, and after being acclimatized in a laboratory environment for one week while supplying enough feed and water, they were used in the experiment. Non-allergenic, dust-free, non-toxic, absorbent and pathogen-free bedding was used, and the cage was changed once a week to maintain a clean environment, and water was freely supplied with a water bottle. […] On the day 16 after the first DNCB application (just before necropsy), ear thickness and clinical symptoms of the mice were measured. The mice prepared in Reference example 1 were evaluated for clinical symptoms (rubefaction, keratin formation (dryness degree), crust formation), and ear thickness was measured and then recorded three times a week (Monday, Wednesday, Friday). Ear thickness was measured three times a week using Caliper (R12-1A, Ozaki, Tokyo, Japan). […] For the mice prepared in Reference example 1, the clinical symptoms of the three items (rubefaction, keratin formation (dryness), crust formation) were scored on the basis of the following: 0 point; none, 1 point; mild, 2 points; moderate, 3 points; severe.

[4] = test system: DNCB-induced atopic dermatitis mouse model; experiment: Ear thickness measurement in DNCB-induced atopic dermatitis mouse model; conditions: oral 100 or 200 mg/kg daily (G5, G6); FIG. 3
Protocol: An animal experiment in the following example was performed in accordance with the regulations set forth by Chonnam National University IACUC in an environment maintained at 50±5% humidity and 24˜26° C. temperature. 7-week-old male BALB/c mice (Damool Science Co., Ltd.) bred as a test animal were used, and after being acclimatized in a laboratory environment for one week while supplying enough feed and water, they were used in the experiment. Non-allergenic, dust-free, non-toxic, absorbent and pathogen-free bedding was used, and the cage was changed once a week to maintain a clean environment, and water was freely supplied with a water bottle. Galactose was pre-administered for 2 weeks from the period when the prepared mice were 8-week-old. Pre-administration was performed by oral administration once a day for 2 weeks, and the dose of galactose was 100 mg/kg or 200 mg/kg, respectively. […] On the day 16 after the first DNCB application (just before necropsy), ear thickness and clinical symptoms of the mice were measured. The mice prepared in Reference example 1 were evaluated for clinical symptoms (rubefaction, keratin formation (dryness degree), crust formation), and ear thickness was measured and then recorded three times a week (Monday, Wednesday, Friday). Ear thickness was measured three times a week using Caliper (R12-1A, Ozaki, Tokyo, Japan). […]

[5] = test system: DNCB-induced atopic dermatitis mouse model; experiment: Visual confirmation of skin lesions in DNCB-induced atopic dermatitis mouse model; conditions: oral 100 or 200 mg/kg daily (G5, G6) vs negative control (G3, PBS); FIG. 2, n=2 per group
Protocol: An animal experiment in the following example was performed in accordance with the regulations set forth by Chonnam National University IACUC in an environment maintained at 50±5% humidity and 24˜26° C. temperature. 7-week-old male BALB/c mice (Damool Science Co., Ltd.) bred as a test animal were used, and after being acclimatized in a laboratory environment for one week while supplying enough feed and water, they were used in the experiment. Non-allergenic, dust-free, non-toxic, absorbent and pathogen-free bedding was used, and the cage was changed once a week to maintain a clean environment, and water was freely supplied with a water bottle. Galactose was pre-administered for 2 weeks from the period when the prepared mice were 8-week-old. Pre-administration was performed by oral administration once a day for 2 weeks, and the dose of galactose was 100 mg/kg or 200 mg/kg, respectively. As a control group, mice administered (orally) with PBS for the same period were prepared. After 2 weeks of pre-administration, the hairs on the mouse head and back of the mice were removed using a clipper and depilatory cream. […] On the day 16 after the first DNCB application (just before necropsy), ear thickness and clinical symptoms of the mice were measured. […]

For `O=C[C@H](O)[C@@H](O)[C@@H](O)[C@H](O)CO` [galactose], the weight of spleen ([1]; FIG. 5) was “generally reduced”, the “weight of lymph nodes (armpit)” value ([1]; FIG. 6) was “generally reduced” and the “total amount of IgE in serum” value [2] was “significantly reduced”. The “score of clinical symptoms (sum of rubefaction, keratin formation, crust formation scores)” value [3] was “significantly reduced”, the ear thickness [4] was “significantly reduced” and the “degree of crust formation” value [5] was “reduced”. For the same molecule, the “degree of skin rubefaction” value [5] was “suppressed”.
